The text below walks through data of ChEMBL document CHEMBL3886455, “Aminoindane derivatives, pharmaceutical compositions containing them, and their use in therapy” (2016).

SMILES strings stand for the structures. pKi: −log10 of the molar value.

One may read the pKi as the negative decadic logarithm of the Ki, by convention in mol/L.

The test has as its target T1, Sodium- and chloride-dependent glycine transporter 1 (Homo sapiens, UniProt P48067).
T1 sequence (P48067 whole entry): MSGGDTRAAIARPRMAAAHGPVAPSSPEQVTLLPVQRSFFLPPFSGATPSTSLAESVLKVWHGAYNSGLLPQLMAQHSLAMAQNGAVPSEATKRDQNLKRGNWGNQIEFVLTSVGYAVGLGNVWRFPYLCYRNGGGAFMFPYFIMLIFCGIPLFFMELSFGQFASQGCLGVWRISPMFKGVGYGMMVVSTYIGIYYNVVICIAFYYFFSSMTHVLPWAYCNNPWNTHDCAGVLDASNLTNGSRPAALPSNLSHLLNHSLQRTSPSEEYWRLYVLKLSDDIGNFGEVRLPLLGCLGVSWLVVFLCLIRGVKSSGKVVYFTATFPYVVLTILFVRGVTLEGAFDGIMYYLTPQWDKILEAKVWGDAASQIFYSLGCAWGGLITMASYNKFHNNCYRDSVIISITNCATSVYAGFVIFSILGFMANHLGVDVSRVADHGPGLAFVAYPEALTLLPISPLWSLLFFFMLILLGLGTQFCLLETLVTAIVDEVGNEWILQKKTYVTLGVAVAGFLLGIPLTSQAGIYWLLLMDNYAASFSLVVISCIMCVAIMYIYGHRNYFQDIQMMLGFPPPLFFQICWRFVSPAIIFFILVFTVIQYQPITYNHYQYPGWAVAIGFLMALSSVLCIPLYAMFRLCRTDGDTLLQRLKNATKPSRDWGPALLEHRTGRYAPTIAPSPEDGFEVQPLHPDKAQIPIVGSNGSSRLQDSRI
Nature of the test: Radioligand Binding Assay: Radioligand binding to human GlyT1c transporter-expressing membranes was determined as described in Mezler et al., Molecular Pharmacology 74:1705-1715, 2008.

On to `Cn1cnc(S(=O)(=O)NCc2cc3c(cc2F)C[C@@H](N)[C@H]3Cc2ccccc2)c1` (relative stereo), for which the pKi was over 8.00.
